In the supplement of paper PMC10307832:

Experiments:
Assay in all cases: relative viability (nuclei count vs DMSO), 5 days (fraction); higher = more cells survive
[1] = compound: CCC1=CN=CN=C1N2CCN(CC2)CC3=NC4=C(N3)C=C(C=C4)C(F)(F)F + Nc1ncn([C@H]2C[C@H](O)[C@@H](CO)O2)c(=O)n1 [Decitabine] (partner 2 µM)
Summary of the method: (§1)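 Medians of duplicate plates are given as relative viability. That measure is the nuclei count in treated wells divided by the count in vehicle wells. Counts were taken on 4× images of lung cancer cell lines in 1536-well plates, 5 days after pin-tool dosing the day after seeding with one drug alone or a fixed anchor-drug dose plus five library-drug doses (not always all listed) in √10 steps.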

Mirin + Bortezomib = compound: N=C1NC(=O)/C(=C/c2ccc(O)cc2)S1 [Mirin] + CC(C)C[C@H](NC(=O)[C@H](Cc1ccccc1)NC(=O)c1cnccn1)B(O)O [Bortezomib] (partner 0.002 µM)
Summary of the method: as §1

[2] = compound: CCn1c(-c2nonc2N)nc2cnc(Oc3cccc(NC(=O)c4ccc(OCCN5CCOCC5)cc4)c3)cc21 + Cc1nc(Nc2ncc(C(=O)Nc3c(C)cccc3Cl)s2)cc(N2CCN(CCO)CC2)n1 [Dasatinib] (partner 0.075 µM)
Summary of the method: as §1

Mirin + Trametinib = compound: N=C1NC(=O)/C(=C/c2ccc(O)cc2)S1 [Mirin] + CC(=O)Nc1cccc(-n2c(=O)n(C3CC3)c(=O)c3c(Nc4ccc(I)cc4F)n(C)c(=O)c(C)c32)c1 [Trametinib] (partner 0.02 µM)
Summary of the method: as §1

Cell Line	relative viability ([1]; first compound 0.04 µM)	relative viability ([1]; first compound 0.1265 µM)	relative viability ([1]; first compound 0.4 µM)	relative viability ([1]; first compound 4 µM)	relative viability (Mirin + Bortezomib; first compound 0.25 µM)	relative viability (Mirin + Bortezomib; first compound 0.7906 µM)	relative viability (Mirin + Bortezomib; first compound 2.5 µM)	relative viability (Mirin + Bortezomib; first compound 7.906 µM)	relative viability (Mirin + Bortezomib; first compound 25 µM)	relative viability ([2]; first compound 0.04 µM)	relative viability ([2]; first compound 0.1265 µM)	relative viability ([2]; first compound 0.4 µM)	relative viability ([2]; first compound 1.265 µM)	relative viability ([2]; first compound 4 µM)	relative viability (Mirin + Trametinib; first compound 0.25 µM)	relative viability (Mirin + Trametinib; first compound 2.5 µM)	relative viability (Mirin + Trametinib; first compound 7.906 µM)	relative viability (Mirin + Trametinib; first compound 25 µM)	relative viability ([1]; first compound 1.265 µM)	relative viability (Mirin + Trametinib; first compound 0.7906 µM)
NCI-H2405	0.748	0.715	0.711	0.795	1.02	0.765	0.967	0.972	1.01	0.239	0.166	0.158	0.135	0.139	0.615	0.6	0.594	0.645		
HCC-44	0.964	0.939	0.944	0.937	0.876	0.955	0.846	0.856	1.13						0.981	1.08	1.06	1.09	0.949	1.36
HCC-78	0.667	0.501	0.643	0.674	0.449	1.03	0.524	0.397	0.424	0.428	0.474		0.4	0.428	0.647	0.885	0.709	0.72	0.6	0.715
COR-L23	0.438	0.378	0.406	0.499	1.1	1.08	1.03	1.06	0.968	0.47	0.336	0.173	0.164	0.121	0.559	0.56	0.345	0.652	0.383	0.522
NCI-H1993	0.563	0.62	0.621	0.51	1.04	1.12	1.06	1.02	0.972	0.596	0.572	0.5	0.552	0.569	0.506	0.533	0.336	0.546	0.522	0.519
NCI-H3122	0.387	0.459	0.418	0.351	1.06	0.985	0.986	1.1	1.1	0.955	0.82	0.651	0.554	0.525	0.221	0.25	0.176	0.221	0.452	0.218
NCI-H2228					0.983	1.04	1	0.919	1.2	0.592	0.519	0.431	0.407	0.421	0.627	0.551	0.382	0.423		0.39
NCI-H1944	0.476	0.415	0.426	0.435						0.192	0.154	0.138	0.157	0.139	0.35	0.387	0.387	0.32	0.391	0.397
NCI-H2342	0.689	0.728	0.707	0.513						0.332	0.319	0.294	0.289	0.302	0.805	0.803		0.751	0.575	0.853
NCI-H358	0.206	0.204	0.158	0.217						0.162	0.195	0.169	0.219	0.141	0.123	0.163	0.11	0.13	0.174	0.146
ABC-1			1.04	0.887	0.293	0.254	0.306	0.339	0.293	0.54	0.51	0.414	0.311	0.372					0.84	
NCI-H1563					1.07	1.11	0.943	0.8	0.812	0.447	0.452	0.343	0.461	0.456						
NCI-H522	0.666	0.63	0.821	0.797						0.735	0.797	0.656	0.614	0.667	0.682	0.872	0.768	0.519	0.621	0.741
NCI-H1793	0.479	0.484	0.436	0.432						0.385	0.284	0.208	0.183	0.194	0.497	0.39	0.352	0.607	0.428	
SW 900	0.385	0.424	0.457	0.397						0.413	0.456	0.312	0.42	0.41	0.95	0.826	0.971	0.653		0.76
CAL-12T					0.921		0.967		1.43	0.39	0.43	0.267	0.276	0.157	0.336	0.405	0.357	0.32		0.373
SK-MES-1	0.34	0.386	0.373	0.361						0.429	0.256	0.224	0.244	0.172	0.505	0.571	0.585	0.716	0.372	0.569
EBC-1					0.596	0.629	0.55	0.535	0.316											
LK-2	0.254	0.266	0.346	0.231						0.39	0.493	0.208	0.178	0.252	0.653	0.609	0.421	0.42	0.256	0.577
IA-LM					0.687	0.961	0.757	0.632	0.845											
NCI-H1703					0.449	0.483	0.347		0.227											
NCI-H1395	0.705	0.676	0.692	0.743						0.398	0.37	0.342	0.317	0.345	0.996	1.03	1.01	1		
